Data on five compounds can be found in patent EP2230235A1, “Botryosphaerones, novel depsidones and their use as medicaments” (Leibniz-Institut für Naturstoff-Forschung und …, priority 2009, dated 2010).

Common to all, as to type: cell-based
One assay deals with Bacillus subtilis. Put plainly: MIC determination / antibacterial activity, agar diffusion method. The note with it: for antimicrobial efficacy / antibacterial activity: B. subtilis, result in words. An excerpt:
(§1) Antifungal activities were studied qualitatively by agar diffusion tests according to the literature (Stuttgart, D. A. V., European Pharmacopoeia, 3rd ed.1997, 13, 118; Afonin, S.; Glaser, R. W.; Berditchevskaia, M.; Wadhwani, P.; Guhrs, K. H.; Mollmann, U.; Perner, A.; Ulrich, A. S. Chembiochem. 2003, 4, (11), 1151-1163; Standards, N. C. f. C. L., Reference Method for Broth Dilution Susceptibility Testing of Filamentous Fungi; Approved Standard. M38-A, Wayne, PA, USA, NCCls 2002, 22) and quantitatively by determination of minimal inhibitory concentration (MIC) according to the NCCLS guidelines using the broth microdilution method. Fifty microliters of the test compound solution in methanol were serially diluted by factor two with the culture medium (RPMI 1640 with L-glutamine, MOPS and without sodium bicarbonate, LONZA Verviers SPRL, Belgium). Then, the wells were inoculated with 50 µL of the test organism to give a final concentration of 6x10^3 CFU mL^-1. After incubation of the microtiter plates at 37°C (Aspergillus terreus) for 24 h, the MIC-values were read with a Nepheloscan Ascent 1.4 automatic plate reader (Lab systems, Vantaa, Finnland) as the lowest dilution of compound allowing no visible growth. The MIC for Fusarium oxysporum and Bacillus subtilis was determined by the agar diffusion method. Fifty microliters of each of the 12 serial twofold dilutions were filled in agar (malt extract agar from Roth, Karlsruhe, Germany; seeded with 0.5 mL of a pretested mycelial solution) holes of 9 mm in diameter. After incubation for 24 h the MIC was read as the lowest concentration giving an inhibition zone.
In general terms: Agar diffusion results depend on both activity and mobility in agar.

A further assay has as its system Aspergillus terreus. In words: MIC determination, broth microdilution method (NCCLS guidelines). The note with it: A. terreus; for MIC: broth microdilution, 37°C, 24 h; for antimicrobial efficacy: result in words.
From the text: as §1
A general note: Dilution methods test growth across graded concentrations, often in twofold steps.

Another assay has as its system Fusarium oxysporum. Put plainly: MIC determination, agar diffusion method. The following applies: 24 h.
From the text: as §1, with “Fifty microliters of each of the 12 serial twofold dilutions were filled in agar (malt extract agar from Roth, Karlsruhe, Germany; seeded with 0.5 mL of a pretested mycelial solution) holes of 9 mm in diameter. After incubation for 24 h the MIC was read as the lowest concentration giving an inhibition zone.” left out

The subject of another assay is HeLa. In words: Cytotoxic assay (methylene blue staining). The following applies: Homo sapiens, 72 hours incubation, read-out: Cytotoxicity CC50 (HeLa). The procedure:
Antiproliferative and Cytotoxic Assays: Cells and culture conditions. Cells of HUVEC (ATCC CRL-1730), K-562 (DSM ACC 10) and HeLa (DSM ACC 57) were cultured in DMEM (CAMBREX 12-614F), RPMI 1640 (CAMBREX 12-167F) and RPMI 1640 (CAMBREX 12-167F) respectively. All cells were grown in the appropriate cell culture medium supplemented with 10 mL L^-1 ultraglutamine 1 (Cambrex 17-605E/U1), 500 µL L^-1 gentamicin sulfate (CAMBREX 17-518Z), and 10 % heat inactivated fetal bovine serum (PAA A15-144) at 37 °C in high density polyethylene flasks (NUNC 156340).
Cytotoxic assay. For the cytotoxic assay, HeLa cells were pre-incubated for 48 hours without the test substances. The dilutions of the compounds were carried out carefully on the subconfluent monolayers of HeLa cells after the pre-incubation time. Cells were incubated with dilutions of the test substances for 72 hours at 37 °C in a humidified atmosphere and 5 % CO2.
Method of evaluation. For estimating the influence of chemical compounds on cell proliferation of K-562, the numbers of viable cells present in multiwell plates were determined via CellTiter-Blue® assay. The indicator dye resazurin was used to measure the metabolic capacity of cells as an indicator of cell viability. […] The optical densities were measured at 660 nm in SUNRISE microplate reader (TECAN). […]

A further assay concerns K-562. Put plainly: Antiproliferative assay (CellTiter-Blue). The following applies: Homo sapiens, K562; read-out: Gl50 (K-562). The procedure: (§2) Antiproliferative and Cytotoxic Assays: Cells and culture conditions. Cells of HUVEC (ATCC CRL-1730), K-562 (DSM ACC 10) and HeLa (DSM ACC 57) were cultured in DMEM (CAMBREX 12-[…]), RPMI 1640 (CAMBREX 12-[…]) and RPMI 1640 (CAMBREX 12-[…]) respectively. All cells were grown in the appropriate cell culture medium supplemented with 10 mL L^-1 ultraglutamine 1 (Cambrex 17-[…]/U1), 500 μ[…] gentamicin sulfate (CAMBREX 17-518Z), and 10 % heat inactivated fetal bovine serum (PAA A15-144) at 37 °C in high density polyethylene flasks (NUNC 156340). Antiproliferative assay. The test substances were dissolved in DMSO before being diluted in DMEM. The adherent cells were harvested at the logarithmic growth phase after soft trypsinization, using 0.25 % trypsin in PBS containing 0.02 % EDTA (Biochrom KG L 2163). For each experiment, approximately 10.000 cells were seeded with 0.1 mL culture medium per well of the 96-well microplates (NUNC 167008). Method of evaluation. For estimating the influence of chemical compounds on cell proliferation of K-562, the numbers of viable cells present in multiwell plates were determined via CellTiter-Blue® assay. The indicator dye resazurin was used to measure the metabolic capacity of cells as an indicator of cell viability. […] The optical densities were measured at 660 nm in SUNRISE microplate reader (TECAN). […]
In general terms: The colour change of resazurin is a common sign of viable cells or microbes.

For a further assay, the system named is HUVEC. In words: Antiproliferative assay (methylene blue staining). The note with it: Homo sapiens. The procedure: as §2
Where [1] appears, read: Aspergillus terreus, read-out: MIC.

Values after ≈ are worked out from the molar mass of the structure shown. Read-outs that look alike come from different tables or passages of the source.

Take botryosphaerone D [Compound 4]: in the assay on Bacillus subtilis, the “antimicrobial efficacy / antibacterial activity” value is listed as “antibacterial activity”.

With `Cc1cc(O)c(C)c2c1Oc1c(CO)c(O)cc(C)c1C(=O)O2` [Compound 3, botryosphaerone C], the “antimicrobial efficacy / antibacterial activity” value in the assay with Bacillus subtilis was “antibacterial activity”. In the assay with Bacillus subtilis (Bacillus subtilis, 24 h), this compound returned an MIC of 400 µg/mL (≈ 1260 µM). In addition, the antibacterial activity result with Bacillus subtilis (Bacillus subtilis, agar diffusion assays, 400 µg mL^-1) is listed as “antibacterial activity”.

As to `C[C@@H]1[C@H](O)[C@@H](C)/C=C/C=C/CC/C=C/C=C/C=C/C=C/C(O[C@H]2O[C@H](C)[C@@H](O)[C@H](N)[C@@H]2O)CC2O[C@](O)(CC(O)C(O)CCC(O)CC(O)CC(O)CC(=O)O[C@H]1C)CC(O)C2C(=O)O` (stereo partly shown) [nystatin, reference compound], the minimal inhibitory concentration (MIC) with Aspergillus terreus is 12.50 µg/mL (≈ 13.5 µM).

Regarding `Cc1cc(O)cc2c1Oc1c(C=O)c(O)cc(C)c1C(=O)O2` [Compound 1, botryosphaerone A], the MIC with Fusarium oxysporum was 57.5 µg/mL (≈ 191 µM); with Aspergillus terreus (setting [1]), 7.81 µg/mL (≈ 26 µM). The CC50 with HeLa turned out to be 97000 nM. Besides, the antimicrobial efficacy result in the assay on Aspergillus terreus is recorded as “active”. Besides, the “antimicrobial efficacy / antibacterial activity” value in the assay with Bacillus subtilis is reported as “active”. The GI50 with K-562 is 840 nM; in the assay on HUVEC, 1670 nM.

Take `Cc1cc(O)c(C)c2c1Oc1c(C=O)c(O)cc(C)c1C(=O)O2` [Compound 2, Botryosphaerone B]: the MIC against Fusarium oxysporum was found to be 75 µg/mL (≈ 239 µM); in the assay on Aspergillus terreus (setting [1]) it was 15.6 µg/mL (≈ 49.7 µM). The CC50 in the assay with HeLa worked out at 36400 nM. In addition, the antimicrobial efficacy result with Aspergillus terreus is given as “active”. Also, in the assay on Bacillus subtilis, the “antimicrobial efficacy / antibacterial activity” value is “active”. For the same compound, the GI50 in the assay on K-562 was 3 nM; with HUVEC, 70 nM.

A word on the MIC: it is the lowest concentration that inhibits growth of the organism. By CC50 is commonly meant the concentration giving 50% cytotoxicity.
